# Measurements from PubChem BioAssay AID220 (DTP/NCI, 2004).
# Where “and” joins values, the source holds several entries; their conditions need not be identical. Equal entries are not always repeated. Inconclusive results are not listed.
# System: CD8F1 mice, subcutaneous mammary adenocarcinoma, T/C%
# Test: NCI In Vivo Anticancer Drug Screen. Data for tumor model Mammary Adenocarcinoma CD8F1 (subcutaneous) in CD8F1
# Settings: higher = larger tumour
# Outline: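 Mice carrying transplanted tumors received test compound, and survival or tumor size was recorded. Each value is the treated-group measurement divided by the corresponding measurement in vehicle-dosed controls.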
# [1] = endpoint: median tumor weight (est.), dose: 25.0 mg/kg/injection, schedule: Q07DX005 (ip), vehicle: saline with Tween-80
# [2] = endpoint: median tumor weight (est.), dose: 50.0 mg/kg/injection, schedule: Q07DX005 (ip), vehicle: saline with Tween-80
# [3] = endpoint: median tumor weight (est.), dose: 50.0 mg/kg/injection, schedule: Q07DX005 (ip), vehicle: Klucel (hydroxypropylcellulose) (HPC)
# [4] = endpoint: median tumor weight change, dose: 31.25 mg/kg/injection, schedule: Q01DX001 (ip), vehicle: saline with Tween-80
compound,measurement,setting,value
O=C(NC1CCCCC1)OCc1c(COC(=O)NC2CCCCC2)c(-c2ccc(Cl)c(Cl)c2)n2c1CCC2,T/C,[1],94 % of control
same,T/C,[2],72 % of control
same,T/C,"endpoint: median tumor weight (est.), dose: 100.0 mg/kg/injection, schedule: Q07DX005 (ip), vehicle: saline with Tween-80",20 % of control
same,T/C,"endpoint: median tumor weight (est.), dose: 200.0 mg/kg/injection, schedule: Q07DX005 (ip), vehicle: saline with Tween-80",28 % of control
CC(=O)Oc1[nH]c(=O)c2cccc3c2c1CCC3,T/C,"endpoint: median tumor weight change, dose: 450.0 mg/kg/injection, schedule: Q01DX001 (ip), vehicle: saline with Tween-80",155 % of control
same,T/C,"endpoint: median tumor weight change, dose: 1800.0 mg/kg/injection, schedule: Q01DX001 (ip), vehicle: saline with Tween-80",99 % of control
[Cl][Pt+2][Cl].[NH-]C1CCC1.[NH2-],T/C,"endpoint: median tumor weight change, dose: 6.25 mg/kg/injection, schedule: Q01DX001 (ip), vehicle: suspension in saline",96 % of control
same,T/C,"endpoint: median tumor weight change, dose: 12.5 mg/kg/injection, schedule: Q01DX001 (ip), vehicle: suspension in saline",99 % of control
CO[C@H](/C(C)=C/C=C/C(C)=C/c1coc(C)n1)[C@H](C)[C@H]1C[C@@H](O)[C@@]2(C)O[C@H]2/C=C/[C@@H](C)[C@@H]2C[C@@H](CC(=O)O2)C[C@H]2O[C@@H]2C(=O)O1,T/C,"endpoint: median tumor weight change, dose: 0.06 mg/kg/injection, schedule: Q01DX001 (ip), vehicle: Klucel (hydroxypropylcellulose) (HPC)",175 % of control
same,T/C,"endpoint: median tumor weight change, dose: 0.25 mg/kg/injection, schedule: Q01DX001 (ip), vehicle: Klucel (hydroxypropylcellulose) (HPC)",83 % of control
same,T/C,"endpoint: median tumor weight change, dose: 0.5 mg/kg/injection, schedule: Q01DX001 (ip), vehicle: Klucel (hydroxypropylcellulose) (HPC)",110 % of control
same,T/C,"endpoint: median tumor weight change, dose: 1.0 mg/kg/injection, schedule: Q01DX001 (ip), vehicle: Klucel (hydroxypropylcellulose) (HPC)",101 % of control
O=C(CCCN1CCC(O)(c2cccc(C(F)(F)F)c2)CC1)c1ccc(F)cc1,T/C,"endpoint: median tumor weight (est.), dose: 3.12 mg/kg/injection, schedule: Q07DX005 (ip), vehicle: Klucel (hydroxypropylcellulose) (HPC)",116 % of control and 118 % of control
same,T/C,[3],55 % of control and 62 % of control
Nc1ncnc2c1ncn2C1OC(CO)C(O)C1O (stereo not given),T/C,"endpoint: median tumor weight (est.), dose: 16.0 mg/kg/injection, schedule: Q07DX005 (ip), vehicle: Klucel (hydroxypropylcellulose) (HPC)",103 % of control
same,T/C,"endpoint: median tumor weight (est.), dose: 37.5 mg/kg/injection, schedule: Q07DX005 (ip), vehicle: saline",47 % of control
same,T/C,"endpoint: median tumor weight (est.), dose: 75.0 mg/kg/injection, schedule: Q07DX005 (ip), vehicle: saline",33 % of control
same,T/C,"endpoint: median tumor weight (est.), dose: 128.0 mg/kg/injection, schedule: Q07DX005 (ip), vehicle: Klucel (hydroxypropylcellulose) (HPC)",83 % of control and 99 % of control
same,T/C,"endpoint: median tumor weight (est.), dose: 150.0 mg/kg/injection, schedule: Q07DX005 (ip), vehicle: saline",47 % of control
same,T/C,"endpoint: median tumor weight (est.), dose: 300.0 mg/kg/injection, schedule: Q07DX005 (ip), vehicle: saline",88 % of control
same,T/C,"endpoint: median tumor weight (est.), dose: 600.0 mg/kg/injection, schedule: Q07DX005 (ip), vehicle: saline",71 % of control
same,T/C,"endpoint: median tumor weight (est.), dose: 1200.0 mg/kg/injection, schedule: Q07DX005 (ip), vehicle: saline",60 % of control
Nc1nc(F)nc2c1ncn2C1OC(COP(=O)(O)O)C(O)C1O (stereo not given),T/C,"endpoint: median tumor weight (est.), dose: 12.5 mg/kg/injection, schedule: Q07DX005 (ip), vehicle: suspension in saline",69 % of control
same,T/C,"endpoint: median tumor weight (est.), dose: 25.0 mg/kg/injection, schedule: Q07DX005 (ip), vehicle: Klucel (hydroxypropylcellulose) (HPC)",49 % of control
same,T/C,"endpoint: median tumor weight (est.), dose: 25.0 mg/kg/injection, schedule: Q07DX005 (ip), vehicle: saline",84 % of control
same,T/C,"endpoint: median tumor weight (est.), dose: 25.0 mg/kg/injection, schedule: Q07DX005 (ip), vehicle: suspension in saline",101 % of control
same,T/C,[3],77 % of control
same,T/C,"endpoint: median tumor weight (est.), dose: 50.0 mg/kg/injection, schedule: Q07DX005 (ip), vehicle: suspension in saline",76 % of control
same,T/C,"endpoint: median tumor weight (est.), dose: 100.0 mg/kg/injection, schedule: Q07DX005 (ip), vehicle: Klucel (hydroxypropylcellulose) (HPC)",101 % of control
same,T/C,"endpoint: median tumor weight (est.), dose: 100.0 mg/kg/injection, schedule: Q07DX005 (ip), vehicle: saline",75 % of control and 98 % of control
same,T/C,"endpoint: median tumor weight (est.), dose: 100.0 mg/kg/injection, schedule: Q07DX005 (ip), vehicle: suspension in saline",66 % of control
same,T/C,"endpoint: median tumor weight (est.), dose: 200.0 mg/kg/injection, schedule: Q07DX005 (ip), vehicle: Klucel (hydroxypropylcellulose) (HPC)",50 % of control
same,T/C,"endpoint: median tumor weight (est.), dose: 200.0 mg/kg/injection, schedule: Q07DX005 (ip), vehicle: suspension in saline",50 % of control
same,T/C,"endpoint: median tumor weight (est.), dose: 400.0 mg/kg/injection, schedule: Q07DX005 (ip), vehicle: Klucel (hydroxypropylcellulose) (HPC)",34 % of control
same,T/C,"endpoint: median tumor weight (est.), dose: 400.0 mg/kg/injection, schedule: Q07DX005 (ip), vehicle: saline",20 % of control
O=C(Nc1cccc2c(OC(=O)C(Cl)Cl)c(N=Nc3ccc(S(=O)(=O)Nc4nccs4)cc3)cc(N=Nc3ccc(S(=O)(=O)Nc4nccs4)cc3)c12)C(Cl)Cl (tested in a mixture with another compound),T/C,"endpoint: median tumor weight change, dose: 250.0 mg/kg/injection, schedule: Q01DX001 (ip), vehicle: saline with Tween-80",106 % of control
same,T/C,"endpoint: median tumor weight change, dose: 500.0 mg/kg/injection, schedule: Q01DX001 (ip), vehicle: saline with Tween-80",124 % of control
same,T/C,"endpoint: median tumor weight change, dose: 1000.0 mg/kg/injection, schedule: Q01DX001 (ip), vehicle: saline with Tween-80",37 % of control
CC(=O)OC1C(O)C(C)OC(OC2C(OC(=O)C3CCC4C(C3)OC3(CC(OC(=O)/C=C/c5ccccc5)C(C)CO3)C43CO3)OC(C)C(O)C2OC(C)=O)C1O (stereo not given),T/C,"endpoint: median tumor weight change, dose: 10.0 mg/kg/injection, schedule: Q01DX001 (ip), vehicle: distilled water + Tween-80",107 % of control
same,T/C,"endpoint: median tumor weight change, dose: 40.0 mg/kg/injection, schedule: Q01DX001 (ip), vehicle: distilled water + Tween-80",100 % of control
same,T/C,"endpoint: median tumor weight change, dose: 80.0 mg/kg/injection, schedule: Q01DX001 (ip), vehicle: distilled water + Tween-80",110 % of control
COc1cccc2c1C(=O)c1c(O)c3c(c(O)c1C2=O)C[C@@](O)(/C(C)=N/NC(=O)c1ccccc1)C[C@@H]3OC1CC(N)C(O)C(C)O1 (stereo not given in full),T/C,"endpoint: median tumor weight (est.), dose: 3.12 mg/kg/injection, schedule: Q07DX005 (ip), vehicle: water",263 % of control
same,T/C,"endpoint: median tumor weight (est.), dose: 6.25 mg/kg/injection, schedule: Q07DX005 (ip), vehicle: water",82 % of control
CO[C@@]12[C@@H]3N[C@@H]3CN1C1=C(C(=O)C(NCC3CCCO3)=C(C)C1=O)[C@@H]2COC(N)=O (stereo not given in full),T/C,"endpoint: median tumor weight change, dose: 6.25 mg/kg/injection, schedule: Q01DX001 (ip), vehicle: distilled water + Tween-80",44 % of control
C[C@@]12C(=O)OC(=O)[C@]1(C)[C@H]1CC[C@@H]2O1,T/C,"endpoint: median tumor weight change, dose: 0.31 mg/kg/injection, schedule: Q01DX001 (ip), vehicle: Klucel (hydroxypropylcellulose) (HPC)",100 % of control
same,T/C,"endpoint: median tumor weight change, dose: 1.25 mg/kg/injection, schedule: Q01DX001 (ip), vehicle: Klucel (hydroxypropylcellulose) (HPC)",118 % of control
COc1ccc(-c2csc(=[N+]3CCCCC3)s2)cc1,T/C,"endpoint: median tumor weight change, dose: 31.0 mg/kg/injection, schedule: Q01DX001 (ip), vehicle: saline with Tween-80",194 % of control
same,T/C,"endpoint: median tumor weight change, dose: 31.0 mg/kg/injection, schedule: Q01DX001 (ip), vehicle: water",75 % of control
C=C1C(C)C2C(Cc3ccccc3)NC(=O)C23C(OC(C)=O)/C=C/C(C)(O)CC(C)C/C=C/C3C1O (stereo not given),T/C,"endpoint: median tumor weight change, dose: 7.5 mg/kg/injection, schedule: Q01DX001 (ip), vehicle: Klucel (hydroxypropylcellulose) (HPC)",61 % of control and 66 % of control
CC[C@]1(O)C[C@H](OC2CC(N(C)C)C(OC3CC(O)C(O)C(C)O3)C(C)O2)c2c(cc3c(c2O)C(=O)c2c(O)ccc(O)c2C3=O)[C@H]1C(=O)OC (stereo not given in full),T/C,"endpoint: median tumor weight (est.), dose: 0.5 mg/kg/injection, schedule: Q07DX005 (ip), vehicle: Klucel (hydroxypropylcellulose) (HPC)",170 % of control
same,T/C,"endpoint: median tumor weight (est.), dose: 1.0 mg/kg/injection, schedule: Q07DX005 (ip), vehicle: Klucel (hydroxypropylcellulose) (HPC)",204 % of control
same,T/C,"endpoint: median tumor weight (est.), dose: 4.0 mg/kg/injection, schedule: Q07DX005 (ip), vehicle: Klucel (hydroxypropylcellulose) (HPC)",63 % of control
Clc1ccc(C(c2ccc(Cl)cc2)C(Cl)(Cl)Cl)cc1,T/C,"endpoint: median tumor weight change, dose: 31.25 mg/kg/injection, schedule: Q01DX001 (ip), vehicle: Klucel (hydroxypropylcellulose) (HPC)",106 % of control
same,T/C,"endpoint: median tumor weight change, dose: 62.5 mg/kg/injection, schedule: Q01DX001 (ip), vehicle: Klucel (hydroxypropylcellulose) (HPC)",84 % of control
same,T/C,"endpoint: median tumor weight change, dose: 125.0 mg/kg/injection, schedule: Q01DX001 (ip), vehicle: Klucel (hydroxypropylcellulose) (HPC)",123 % of control
same,T/C,"endpoint: median tumor weight change, dose: 250.0 mg/kg/injection, schedule: Q01DX001 (ip), vehicle: Klucel (hydroxypropylcellulose) (HPC)",80 % of control
same,T/C,"endpoint: median tumor weight change, dose: 500.0 mg/kg/injection, schedule: Q01DX001 (ip), vehicle: Klucel (hydroxypropylcellulose) (HPC)",59 % of control
BrCC[Se]c1ccccc1,T/C,"endpoint: median tumor weight (est.), dose: 6.25 mg/kg/injection, schedule: Q07DX005 (ip), vehicle: saline with Tween-80",78 % of control
same,T/C,"endpoint: median tumor weight (est.), dose: 12.5 mg/kg/injection, schedule: Q07DX005 (ip), vehicle: saline with Tween-80",104 % of control
same,T/C,[1],80 % of control
same,T/C,[2],152 % of control
O=[n+]1c2ccccc2n([O-])c2ccccc21.[Cl][Ni][Cl],T/C,"endpoint: median tumor weight change, dose: 15.63 mg/kg/injection, schedule: Q01DX001 (ip), vehicle: saline with Tween-80",87 % of control
same,T/C,[4],52 % of control
Cc1cc(O)c2c(c1O)C(=O)C13C(=C2O)C(=O)C2C(O)C1C1C(O)C3C(=O)C3=C(O)c4c(O)cc(C)c(O)c4C(=O)C321 (stereo not given),T/C,"endpoint: median tumor weight change, dose: 15.62 mg/kg/injection, schedule: Q01DX001 (ip), vehicle: saline with Tween-80",38 % of control
same,T/C,[4],100 % of control
